Experiments:
[1] = tested on: mice (C57BL/6) sensitised to ovalbumin; experiment: Airway hyperresponsiveness to methacholine in ovalbumin-sensitised mice; assay type: in vivo; conditions: ovalbumin-challenged mice; for airway reactivity to intravenous methacholine (change in respiratory resistance) (FIG. 8): 50 mg/kg/day intraperitoneally; for airway reactivity to intravenous methacholine (change in respiratory resistance) (FIG. 9): 50 mg/kg/day orally
Experimental: Conscious female mice (C57BL/6) of 6-8 weeks of age were sensitised by a 0.2 ml intraperitoneal injection of 50 ug ovalbumin (in 10 mg/ml aluminium hydroxide) on day 0 and 12. and subsequently challenged with an aerosol of OVA (1% w/v)/FCS (5% v/v) on days 20-28 for 30 minutes. The aerosol exposures were achieved by placing the rodents in a whole body plethysmograph apparatus and then nebulising the […] into the chamber through a port located on the top of the chamber. The aerosol exited the chamber via a bias flow into a particle trap.
Drug treatments were administered to assess the effects of drugs on the development of airway hyperresponsiveness. Drug treatment commenced the day prior (day 19) to the first exposure to OVA (day 20) and continued throughout the period during which the mice were challenged with OVA. Drug treatment comprised 4NO or 2MEO, each at 50 mg/kg administered once daily 2h before OVA exposure to either intraperitoneally or orally in a vehicle of 10% DMSO/90% peanut oil in a volume of 100 μL.
After the 26-28 day sensitisation and challenge protocol, airway obstruction in response to the bronchoconstrictor methacholine was measured. The mice were anaesthetised with a mixture of ketamine/xylazine. A tracheostomy was performed, and a catheter placed in the jugular vein to administer methacholine intravenously. The mouse was then be placed in a whole body plethysmograph and mechanically ventilated (150 breaths/min at a tidal volume of 10 ml/kg). The transpulmonary pressure was measured with a differential pressure transducer with one port attached to the interior of the plethysmograph and the other to the intratracheal cannula. The airflow rate was measured with a pneumotachograph.
The change in airways resistance in response to intravenous methacholine (1-1000 μg/kg, given 4 minutes apart) was calculated on-line with a Buxco pulmonary mechanics analyzer.
The effects of treatment of ovalbumin-challenged mice (veh-OVA) with either 2MEO or 4NO, provided intraperitoneally at 50 mg/kg/day on airway reactivity to intravenously administered methacholine are shown in FIG. 8. Data are expressed as the change in respiratory resistance from the baseline level and are presented as the mean and standard error of the mean.
OVA challenge (veh-OVA) increased the airway reactivity to methacholine compared to that detected in non-challenged mice (veh-SAL).

[2] = target: colchicine binding site on tubulin; experiment: Colchicine displacement assay on partially purified tubulin; conditions: partially purified lamb brain tubulin, 1 μM 3H colchicine
Experimental: For the binding assays, a partial purification of tubulin was derived from the polymerization-depolymerization method of Williams and Lee (Williams et al., 1982). Three lamb brains (approximately 150 g total) were obtained approximately fifteen minutes after slaughter. Batches of 100g of brain were homogenized in 50 mL cold PM4M buffer (100 mM piperazine-N,N′-bis[2-ethane sulfonic acid] (PIPES), 1 mM MgSO4, 2 mM ethylene glycol tetra-acetate (EGTA), 2 mM DTT, 4 M glycerol, pH 6.9) using a domestic blender (Power Blender, Ronson) on the highest setting for 30 s. The crude homogenate was centrifuged for 15 mins (9000 rpm (6500×g), 4° C.) and the precipitate (cell debris, extracellular matrix and crude nuclear fraction) discarded. The 6500×g supernatant was then centrifuged for 75 mins (28 000 rpm (96 000×g), 4° C.) and the precipitate (consisting largely of cell membranes) was discarded.
The GTP (guanosine triphosphate) concentration of the 96 000×g supernatant was adjusted to 1 mM by the addition of an appropriate amount of a freshly prepared solution of 50 mM GTP in distilled water. […]
Reaction mixtures were incubated for 30 mins at 37° C. in a water bath, followed by cold stabilization on ice for 1 to 1.5 hours. […] 5 ml “Emulsifier Safe” scintillation fluid (Packard) was added to each tube, and the samples counted in a Packard 1600TR liquid scintillation analyzer.

[3] = tested on: human breast tumour cell line, MCF7; experiment: Proliferation of MCF7 cells in response to 5% FCS or EGF; assay type: cell-based; conditions: for effect on proliferation of MCF7 cells, in words (FIG. 3): 5% FCS or EGF 300 pM
Experimental: The effects of 4NO were evaluated in a number of non-smooth muscle cell types including the type II airway epithelial cell line, A549 (ATCC accession number ATCC CCL-185 Lung carcinoma human) (FIG. 2); the human breast tumour cell line, MCF7, (ATTC accession number ATCC HTB-22 breast adenocarcinoma, human) which expresses the estrogen receptor (FIG. 3); and in bovine aortic endothelial cells (BAEC) (FIG. 4).
The effects of test compounds were examined on proliferation of A549 cells in response to 5% fetal calf serum (FCS). Analogues were pre-incubated with A549 cells for 30 min before the addition of FCS. The incubation continued for 48 h before cell enumeration. Data are expressed as a percentage of the cell number in vehicle treated wells and are presented as the mean and standard error of the mean. Similarly the effects of 2MEO and 4NO on proliferation of MCF7 in response to 5% FCS or epidermal growth factor (EGF, 300 pM) were examined, as were the effects of 2MEO and 4NO on proliferation of BAEC in response to 5% FCS. The incubation parameters were the same as described above and results are presented as the mean and standard error of the mean.
This assay was also used to evaluate the ability of other compounds to inhibit the proliferation of non-smooth muscle cells MCF7 and A549 (described above) in response to 5% FCS. The results of this assay are presented in Table 4 (columns G and H respectively). The potency of the compounds was considerably less in inhibiting proliferation of these cell lines than it was for HASM. These observations support the contention that there are cell type-specific targets for the actions of these compounds. Such assays may also be adopted to examine the effect of other disclosed compounds on these cells or on other non-smooth muscle cells of interest.

[4] = tested on: HASM cells; experiment: PDGF(BB)-induced migration of HASM cells (modified Boyden chamber); assay type: cell-based, human; conditions: PDGF(BB) 1 ng/ml, 5 h, 30 min pre-treatment
Experimental: Costar transwell culture inserts (Corning Inc, USA) with 6.5 mm diameter and […] were coated overnight at 4° C. with 0.1% gelatin (Bovine skin; Sigma, USA) prior to the commencement of the assay (modified Boyden chamber assay). HASM cells were deprived of serum for 24 h prior to the commencement of the assay. Cells were added to the upper side of the transwell inserts with or without 30 min pre-treatment with one of the test compounds. Platelet-derived growth factor(BB) (1 ng/ml) was added to the lower compartment to stimulate cell migration and the chambers and cells left for 5 h. After this period the membranes with the adherent cells were washed with PBS, and fixed for 2 min with DiffQuick (Lab Aids, Aus) fixative and then stained with DiffQuick. Membranes were then washed twice in PBS, peeled off the inserts and placed onto slides. Membranes were visualised by light microscopy, and the number of migrated cells in five fields (×400) were counted in triplicate.
The numbers of HASM appearing on the underside of the porous membrane was counted and the responses were expressed as a percentage of the number of cells migrating in response to PDGF in the absence of pre-treatment.

[5] = tested on: HASM cells; experiment: bFGF-induced HASM proliferation over 7 days on plastic or collagen-coated silastic, comparison with dexamethasone; assay type: cell-based, human; conditions: 1 μM, bFGF 300 pM
Experimental: We examined the effects of 4NO (1 μM) and the glucocorticoid dexamethasone (Dex, 100 nM) on the proliferation of HASM cells in response to bFGF (300 pM). Dexamethasone is a commonly used anti-inflammatory glucocorticoid. Cells were cultured on a standard plastic tissue culture plate. The test compounds were pre-incubated with HASM for 30 minutes before the addition of bFGF. The incubation continued for 7 days before cell enumeration (FIG. 5). Data are expressed as a percentage of the cell number in vehicle treated wells and are presented as the mean and standard error of the mean.
The response of HASM cells grown on a collagen extracellular matrix to the glucocorticoids and test compounds was also examined. Cells were cultured on a collagen-coated silastic base. HASM cells were pre-incubated with the test compounds for 30 minutes before the addition of bFGF (300 pM). The incubation continued for 7 days before cell enumeration (FIG. 6). Data are expressed as a percentage of the cell number in vehicle treated wells and are presented as the mean and standard error of the mean.

Row | Compound | airway reactivity to intravenous methacholine (change in respiratory resistance) (FIG. 8) [1] | airway reactivity to intravenous methacholine (change in respiratory resistance) (FIG. 9) [1] | Tubulin affinity (pIC50 ^3H-colchicine displacement) [2] | effect on proliferation of MCF7 cells, in words (FIG. 3) ([3]; concentration not given) | MCF7 pIC50 ([3]; proliferation in response to 5% FCS, pIC50 of 4.00 = inactive) | migration in response to PDGF [4] | effect on bFGF-induced HASM proliferation on collagen (FIG. 6) ([5]; collagen-coated silastic) | effect on bFGF-induced HASM proliferation on plastic (FIG. 5) ([5]; plastic tissue culture plate) | effect on proliferation of MCF7 cells, in words (FIG. 3) ([3]; concentrations below 3 μM)
1 | COc1cc2c(cc1O)CC[C@@H]1[C@@H]2CC[C@]2(C)[C@@H](O)CC[C@@H]12 [2-methoxyestradiol, reference compound] | able to reduce the increase in respiratory resistance | able to reduce the increase in respiratory resistance | 4.8 | effective inhibitor | 5.40 | significantly reduced levels of migration |  |  | 
2 | COc1cc2c(cc1O)C(=NOCc1ccc([N+](=O)[O-])cc1)C[C@@H]1[C@@H]2CC[C@]2(C)[C@@H](O)CC[C@@H]12 [CP-DM-2-11-7, 2-methoxy-6-(4-nitrobenzyloxy)iminoestradiol] | able to reduce the increase in respiratory resistance | able to reduce the increase in respiratory resistance | <4.0 |  |  | significantly reduced levels of migration | retained its effectiveness as an anti-proliferative agent | markedly reduced the increase in HASM cell number to levels below that of dexamethasone | no detectable effect
